In PubChem BioAssay (NCI):
Values joined by “and” are separate entries in the source; they are usually repeats but may differ in a detail not shown here. Identical values can stand only once.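 GI50 marks 50% less growth. TGI denotes the concentration required for complete inhibition of growth.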

Tests used:
Assay in all cases: NCI anticancer screen, dose series, 384-well format
COLO 205 colon = test system: COLO 205 colon
U251 glioblastoma = test system: U251 glioblastoma
MOLT-4 leukemia = test system: MOLT-4 leukemia
UO-31 renal = test system: UO-31 renal
RXF 393 renal = test system: RXF 393 renal
HT29 colon = test system: HT29 colon
RPMI-8226 leukemia = test system: RPMI-8226 leukemia
OVCAR-4 ovarian = test system: OVCAR-4 ovarian
MDA-MB-468 breast = test system: MDA-MB-468 breast
SK-MEL-5 melanoma = test system: SK-MEL-5 melanoma
NCI-H522 lung = test system: NCI-H522 lung
SF-295 CNS = test system: SF-295 CNS
UACC-62 melanoma = test system: UACC-62 melanoma
HCC-2998 colon = test system: HCC-2998 colon
A498 renal = test system: A498 renal
MDA-MB-231 breast = test system: MDA-MB-231 breast
NCI-H23 lung = test system: NCI-H23 lung
K-562 leukemia = test system: K-562 leukemia
OVCAR-3 ovarian = test system: OVCAR-3 ovarian
MALME-3M melanoma = test system: MALME-3M melanoma
NCI-H322M lung = test system: NCI-H322M lung
SNB-75 CNS = test system: SNB-75 CNS
HCT-116 colon = test system: HCT-116 colon
SK-MEL-28 melanoma = test system: SK-MEL-28 melanoma
TK-10 renal = test system: TK-10 renal
SK-OV-3 ovarian = test system: SK-OV-3 ovarian
EKVX NSCLC = test system: EKVX NSCLC
HOP-92 NSCLC = test system: HOP-92 NSCLC
MDA-MB-435 melanoma = test system: MDA-MB-435 melanoma
OVCAR-8 ovarian = test system: OVCAR-8 ovarian

## Oc1cccc(-c2nc(N3CCOCC3)c3oc4ncccc4c3n2)c1
COLO 205 colon
  GI50: 4480 nM and 5550 nM
  TGI: 33600 nM and 27200 nM
U251 glioblastoma
  GI50: 670 nM and 390 nM
  TGI: > 100000 nM and 19600 nM
MOLT-4 leukemia
  GI50: 23 nM and 39.1 nM
  TGI: 230 nM and 195 nM
UO-31 renal
  GI50: 60.9 nM
  TGI: 295 nM
RXF 393 renal
  GI50: 95.7 nM and 207 nM
  TGI: 337 nM and 2860 nM
HT29 colon
  GI50: 3280 nM and 3420 nM
  TGI: > 100000 nM
RPMI-8226 leukemia
  GI50: 116 nM and 44.9 nM
  TGI: 419 nM and 184 nM
OVCAR-4 ovarian
  GI50: 350 nM and 87.4 nM
  TGI: 3690 nM and 613 nM
MDA-MB-468 breast
  GI50: 289 nM and 291 nM
  TGI: 1140 nM and 1240 nM
SK-MEL-5 melanoma
  GI50: 103 nM and 77.6 nM
  TGI: 498 nM and 279 nM
NCI-H522 lung
  GI50: 81.6 nM and 55.9 nM
  TGI: 524 nM and 501 nM
SF-295 CNS
  GI50: 1290 nM and 2370 nM
  TGI: 4020 nM and 8530 nM
UACC-62 melanoma
  GI50: 305 nM and 400 nM
  TGI: 1460 nM and 2300 nM
HCC-2998 colon
  GI50: 147 nM and 367 nM
  TGI: 4250 nM and 8570 nM
A498 renal
  GI50: 2050 nM and 598 nM
  TGI: 4690 nM and 2870 nM
MDA-MB-231 breast
  GI50: 289 nM and 500 nM
  TGI: 47600 nM and > 100000 nM
NCI-H23 lung
  GI50: 306 nM and 324 nM
  TGI: 16100 nM and 17700 nM
K-562 leukemia
  GI50: 327 nM
  TGI: > 100000 nM
OVCAR-3 ovarian
  GI50: 54 nM and 118 nM
  TGI: 398 nM and 408 nM
MALME-3M melanoma
  GI50: 40.3 nM and 83.5 nM
NCI-H322M lung
  GI50: 229 nM and 106 nM
  TGI: 2030 nM and 642 nM
SNB-75 CNS
  GI50: 33.4 nM and 53.7 nM
HCT-116 colon
  GI50: 982 nM and 466 nM
  TGI: > 100000 nM
SK-MEL-28 melanoma
  GI50: 96.3 nM and 123 nM
TK-10 renal
  GI50: 331 nM and 167 nM
  TGI: 1920 nM and 695 nM
SK-OV-3 ovarian
  GI50: 81.1 nM and 120 nM
EKVX NSCLC
  GI50: 111 nM and 135 nM
  TGI: 468 nM and 504 nM
HOP-92 NSCLC
  GI50: 50.6 nM and 111 nM
MDA-MB-435 melanoma
  GI50: 161 nM and 162 nM
  TGI: 823 nM and 767 nM
OVCAR-8 ovarian
  GI50: 197 nM
  TGI: > 100000 nM
